One experiment has as its system IVTT euk-mix. Kind of experiment: EGFP expression in IVTT euk-mix, Western blot. It counts as biochemical. As to conditions: 1 hour, 30° C., 2 μg plasmid, 50 μL IVTT euk-mix. How it is done:
FIG. 10. Expression of the firefly luciferase and the Enhanced Green Fluorescent Protein (EGFP) in the presence of 3P. (a, top), Effect of 3P on luciferase protein expression. ε-Labeled biotinylated lysine-tRNAs is used to monitor the protein production by SDS-PAGE. (a, bottom), Histogram representing the relative quantification (density fold change) of the bands reported in the western blot (up), respect to the control (input, reaction mix without 3P). Reactions are carried out in a final volume of 50 μL of IVTT euk-mix. Error bars represent s.d. calculated from a duplicate experiment; (b, top-left), Scheme of the plasmid used for EGFP expression. Restriction sites used to clone the gene are reported. (b, top-right) The effect of 3P on EGFP expression monitored by Western Blot analysis. Reactions are performed in a final volume of 50 μL of IVTT euk-mix (up) or IVTT pro-mix (down). (b, bottom). Effect of 3P and 3PP on EGFP expression in a IVTT euk-mix.
FIG. 15. Isolation of actively translated GFP transcripts after in vitro expression of EGFP protein. (a, left) The two plasmids used for EGFP expression (pBluescript II KS+, Genscript; pPR-IBA2, IBA, #2-1391-000). […] The relative abundance is reported as 2^(39-Cq), where 39 are the number of cycles and Cq is the quantification cycle. […]

In experiment [1] the test system is in vitro-cell free translation system (IVTT euk-mix). Kind of experiment: In vitro cell-free expression of firefly luciferase (IVTT euk-mix), SDS-PAGE and luminescence. It counts as biochemical. Here is the method:
FIG. 9. Effect of 3P and puromycin on in vitro-cell free expression of the luciferase gene. Luciferase protein production in the presence of different concentrations of puromycin and 3P (left panel). The firefly luciferase is expressed in vitro (90 min) adding z-labeled biotinylated lysine-tRNAs to the reaction. After incubation with streptavidin-HRP, the protein is visualized by chemiluminescence.
To date, no structural data are available for puromycin binding in complex with the eukaryotic ribosome, while the bonding of a puromycin derivative in bacterial ribosome is well described^49. […] In particular, we tested the effect of 3P on an in vitro-cell free translation system (hereinafter called “IVTT euk-mix”: TNT Quick coupled Transcription/Translation System, Promega #L2881) using a firefly luciferase gene (Promega #L4741). […] After 90 minutes of incubation, we monitored the protein production by SDS-PAGE and luminescence assay (FIG. 9). […]
The luciferase translation efficiency was monitored by means of luminescence signal using the Bright-Glo™ Luciferase Assay System (Promega, E2610) and the Infinite 200 PRO reader (Tecan), according to the manufacturer's instruction. […]

This is an account of results in patent publication US10183955B2, “Molecules for isolation of polyribosomes, ribosomes, uses and kits thereof” (Immagina Biotechnology S.r.l., priority 2015, dated 2019).

SMILES strings stand for the structures.

For `COC(=O)C[C@](O)(CCC(C)(C)O)C(=O)O[C@@H]1C(OC)=C[C@]23CCCN2CCc2cc4c(cc2[C@H]13)OCO4` [harringtonine], the “effect on EGFP expression (free in solution)” value in the experiment with IVTT euk-mix was “inhibitory effect”.

Consider `COc1ccc(C[C@H](N)C(=O)N[C@H]2[C@@H](O)[C@H](n3cnc4c(N(C)C)ncnc43)O[C@@H]2CO)cc1` [puromycin], for which the “b of best fit y=A*exp(−x/b) of luciferase expression as a function of concentration (A=100)” value in experiment [1] (concentrations 0, 0.01, 0.1, 1, 10 μM, n=3) is recorded as 0.020±0.003. Besides, the “protein synthesis upon titration” value in experiment [1] (firefly luciferase, 90 minutes, 0-10 μM) is given as “exponential decay of the protein synthesis”.
